Experimental data: ChEMBL document CHEMBL1137428, “Synthesis and monoamine transporter binding properties of 2,3-cyclo analogues of 3beta-(4'-aminophenyl)-2beta-tropanemethanol” (J Med Chem, 2006)

Legend:
[1] = target: Sodium-dependent dopamine transporter (Homo sapiens, UniProt Q01959); assay: Displacement of [3H]WIN-35428 from human DAT
[2] = target: Sodium-dependent noradrenaline transporter (Homo sapiens, UniProt P23975); assay: Displacement of [3H]nisoxetine from human NET
[3] = target: Sodium-dependent serotonin transporter (Homo sapiens, UniProt P31645); assay: Displacement of [3H]paroxetine from human 5HTT
Sodium-dependent serotonin transporter, sequence (P31645 whole entry): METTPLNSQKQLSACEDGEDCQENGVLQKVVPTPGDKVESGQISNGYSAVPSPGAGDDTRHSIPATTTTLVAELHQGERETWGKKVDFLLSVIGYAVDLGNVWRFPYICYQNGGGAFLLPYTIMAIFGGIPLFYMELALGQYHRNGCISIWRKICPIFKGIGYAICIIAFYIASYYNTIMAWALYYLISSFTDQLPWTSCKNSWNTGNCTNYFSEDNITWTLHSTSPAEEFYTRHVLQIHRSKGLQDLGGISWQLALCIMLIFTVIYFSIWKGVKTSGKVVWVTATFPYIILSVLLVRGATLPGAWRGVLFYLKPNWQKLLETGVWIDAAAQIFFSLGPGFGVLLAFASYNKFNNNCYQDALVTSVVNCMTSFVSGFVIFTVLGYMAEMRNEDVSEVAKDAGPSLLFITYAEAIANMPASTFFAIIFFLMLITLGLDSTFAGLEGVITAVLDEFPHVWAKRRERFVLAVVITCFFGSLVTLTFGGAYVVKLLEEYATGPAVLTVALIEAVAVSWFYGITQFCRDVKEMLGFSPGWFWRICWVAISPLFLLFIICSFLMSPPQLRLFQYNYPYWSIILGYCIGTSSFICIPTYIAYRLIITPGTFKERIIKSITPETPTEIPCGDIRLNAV

Sodium-dependent dopamine transporter, sequence (Q01959 whole entry): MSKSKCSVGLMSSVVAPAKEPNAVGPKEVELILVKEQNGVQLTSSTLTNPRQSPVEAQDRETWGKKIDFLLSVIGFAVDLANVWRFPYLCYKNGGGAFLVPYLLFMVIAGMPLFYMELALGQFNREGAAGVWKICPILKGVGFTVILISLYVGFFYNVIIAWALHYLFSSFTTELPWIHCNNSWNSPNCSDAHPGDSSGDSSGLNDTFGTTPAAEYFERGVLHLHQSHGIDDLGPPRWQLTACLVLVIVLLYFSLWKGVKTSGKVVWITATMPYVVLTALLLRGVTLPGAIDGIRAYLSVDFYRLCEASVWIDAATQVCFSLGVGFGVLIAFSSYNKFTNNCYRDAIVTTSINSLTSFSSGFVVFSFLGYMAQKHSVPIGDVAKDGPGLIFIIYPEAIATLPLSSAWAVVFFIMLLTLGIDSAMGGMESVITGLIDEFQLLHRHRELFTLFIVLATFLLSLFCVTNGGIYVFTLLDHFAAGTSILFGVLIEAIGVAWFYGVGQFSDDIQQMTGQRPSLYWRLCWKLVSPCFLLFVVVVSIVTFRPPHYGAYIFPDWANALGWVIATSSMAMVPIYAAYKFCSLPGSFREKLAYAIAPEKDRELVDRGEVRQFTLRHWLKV
Sodium-dependent noradrenaline transporter, sequence (P23975 whole entry): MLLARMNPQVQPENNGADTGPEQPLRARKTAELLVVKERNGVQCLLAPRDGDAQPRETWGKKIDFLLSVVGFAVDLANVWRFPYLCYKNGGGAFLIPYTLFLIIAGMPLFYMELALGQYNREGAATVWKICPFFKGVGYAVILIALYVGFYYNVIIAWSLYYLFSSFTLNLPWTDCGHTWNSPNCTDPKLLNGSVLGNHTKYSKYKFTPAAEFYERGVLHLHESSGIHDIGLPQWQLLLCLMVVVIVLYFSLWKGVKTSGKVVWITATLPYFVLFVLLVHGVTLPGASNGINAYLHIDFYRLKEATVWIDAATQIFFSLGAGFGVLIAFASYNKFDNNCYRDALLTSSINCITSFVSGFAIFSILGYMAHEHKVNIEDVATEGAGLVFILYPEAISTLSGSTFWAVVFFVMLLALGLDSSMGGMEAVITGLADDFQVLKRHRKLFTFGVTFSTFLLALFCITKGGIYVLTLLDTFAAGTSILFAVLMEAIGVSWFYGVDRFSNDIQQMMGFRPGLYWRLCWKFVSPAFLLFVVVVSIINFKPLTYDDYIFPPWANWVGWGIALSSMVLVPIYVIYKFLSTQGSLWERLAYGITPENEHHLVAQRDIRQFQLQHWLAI

| Structure (SMILES) | IC50 [1] [nM] | IC50 [2] [nM] | Ki [2] [nM] | IC50 [3] [nM] | Ki [3] [nM] |
| --- | --- | --- | --- | --- | --- |
| CN1C2CCC1C1COC(=O)CCCCCCCCC(=O)Nc3ccc(cc3)C1C2 (stereo not given) | 130 | 2800 | 1400 | 7.8 | 1.9 |
| CN1C2CCC1C1COC(=O)Cc3ccc(cc3)CC(=O)Nc3ccc(cc3)C1C2 (stereo not given) | > 2000 | – | > 2000 | – | > 2000 |
| CN1C2CCC1C1COC(=O)CCCCC(=O)Nc3ccc(cc3)C1C2 (stereo not given) | 890 | – | > 2000 | > 2000 | – |
| CN1C(=O)CCCCCCCCC(=O)OCC2C(CC3CCC2N3C)c2ccc1cc2 (stereo not given) | 1920 | – | > 2000 | – | > 2000 |
| CN1C2CCC1C1COC(=O)CCCCCC(=O)Nc3ccc(cc3)C1C2 (stereo not given) | 3.8 | 40 | 20 | 200 | 50 |
| CN1C2CCC1C1COC(=O)CCSCCC(=O)Nc3ccc(cc3)C1C2 (stereo not given) | 170 | 990 | 500 | 6730 | 1650 |
| CN1C2CCC1C1COC(=O)CCC3(CCC(=O)Nc4ccc(cc4)C1C2)c1ccccc1-c1ccccc13 (stereo not given) | 290 | 980 | 490 | > 2000 | – |
| CN1CCCCCCCCCCCC(=O)OCC2C(CC3CCC2N3C)c2ccc1cc2 (stereo not given) | 490 | – | > 2000 | 450 | 110 |
| CN1C2CCC1C1COC(=O)CCC(=O)CCC(=O)Nc3ccc(cc3)C1C2 (stereo not given) | 160 | 1400 | 710 | 5010 | 1230 |
| CN1C2CCC1C1COC(=O)CCCCCCCCCCC(=O)Nc3ccc(cc3)C1C2 (stereo not given) | 390 | 2320 | 1160 | 1200 | 290 |
| CN1CCCCCCCCCC(=O)OCC2C(CC3CCC2N3C)c2ccc1cc2 (stereo not given) | 150 | 2130 | 1060 | 380 | 94 |
| CN1C2CCC1C1COC(=O)CCCCCCC(=O)Nc3ccc(cc3)C1C2 (stereo not given) | 70 | 3040 | 1520 | 2090 | 513 |
| CN1C2CCC1C1COC(=O)CCCCCCCC(=O)Nc3ccc(cc3)C1C2 (stereo not given) | 410 | – | > 2000 | – | > 2000 |
